Measurements reported in patent publication US9200051B2, “Peptide compound” (TAKEDA PHARMACEUTICAL COMPANY LIMITED, priority 2013, dated 2015).
Square brackets hold non-standard residues; d marks the D form. Peptide text beside a SMILES is read from it. αMeF = C[C@](N)(Cc1ccccc1)C(=O)O; Aib = CC(C)(N)C(=O)O

Experiments:
[1] = molecular target: T1, human GIPR (Homo sapiens, UniProt P48546); experiment: Agonist activity against human GIPR, CRE-luciferase reporter assay (rise in intracellular cAMP) in hGIPR/CRE-LUC/CHO-K1 cells; type: cell-based; conditions: hGIPR/CRE-LUC/CHO-K1 cells, 4 hours incubation; 10 nM GIP = 100%; read-out: Agonist activity (EC50) hGIPR
T1 construct: expressed in transfected cells; host or cells: CHO-K1 (CRE-LUC/CHO-K1), plasmid hGIPR/pMSRα-neo
T1 sequence (P48546 22-466): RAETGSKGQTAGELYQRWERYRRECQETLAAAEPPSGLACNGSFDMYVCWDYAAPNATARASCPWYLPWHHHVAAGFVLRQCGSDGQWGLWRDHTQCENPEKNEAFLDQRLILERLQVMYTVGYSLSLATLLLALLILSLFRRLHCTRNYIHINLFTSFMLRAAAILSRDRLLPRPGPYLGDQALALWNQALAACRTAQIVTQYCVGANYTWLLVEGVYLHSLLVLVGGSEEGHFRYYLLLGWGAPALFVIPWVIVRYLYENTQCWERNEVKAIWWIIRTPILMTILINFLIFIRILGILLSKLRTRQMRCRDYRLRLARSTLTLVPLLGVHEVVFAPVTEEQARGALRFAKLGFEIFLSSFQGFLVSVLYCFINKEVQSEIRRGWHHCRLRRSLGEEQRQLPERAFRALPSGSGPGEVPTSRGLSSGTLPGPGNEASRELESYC

[2] = molecular target: T2, human glucagon R (Homo sapiens, UniProt P47871); experiment: Agonist activity against human glucagon R, CRE-luciferase reporter assay in hGlucagonR/CRE-LUC/CHO-K1 cells; type: cell-based; conditions: hGlucagonR/CRE-LUC/CHO-K1 cells, 4 hours incubation; 10 nM glucagon = 100%; read-out: Agonist activity (EC50) hGCGR
T2 construct: expressed in transfected cells; host or cells: CHO-K1 (CRE-LUC/CHO-K1), plasmid hGlucagonR/pMSRα-neo

[3] = Solubility test in Britton-Robinson buffer, observed visually; type: physicochemical
Procedure: The test compound of approximately 2 mg was measured precisely. Solvents (10 μL, 20 μL or 40 μL) with different pH (Britton-Robinson buffer (pH 3, 5, 7, 9)) were added to each test compound at 25° C., and the solubility was observed visually.

[4] = molecular target: T3, human GLP-1R (Homo sapiens, UniProt P43220); experiment: Agonist activity against human GLP-1R, CRE-luciferase reporter assay in hGLP-1R/CRE-luc/CHO-K1 cells; type: cell-based; conditions: hGLP-1R/CRE-luc/CHO-K1 cells, 4 hours incubation; 10 nM GLP-1 = 100%; read-out: Agonist activity (EC50) hGLP-1R
T3 construct: expressed in transfected cells; host or cells: CHO-K1, plasmids hGLP-1/pIRESneo3 and Cre-luc(Zeo)
T3 sequence (P43220 24-463): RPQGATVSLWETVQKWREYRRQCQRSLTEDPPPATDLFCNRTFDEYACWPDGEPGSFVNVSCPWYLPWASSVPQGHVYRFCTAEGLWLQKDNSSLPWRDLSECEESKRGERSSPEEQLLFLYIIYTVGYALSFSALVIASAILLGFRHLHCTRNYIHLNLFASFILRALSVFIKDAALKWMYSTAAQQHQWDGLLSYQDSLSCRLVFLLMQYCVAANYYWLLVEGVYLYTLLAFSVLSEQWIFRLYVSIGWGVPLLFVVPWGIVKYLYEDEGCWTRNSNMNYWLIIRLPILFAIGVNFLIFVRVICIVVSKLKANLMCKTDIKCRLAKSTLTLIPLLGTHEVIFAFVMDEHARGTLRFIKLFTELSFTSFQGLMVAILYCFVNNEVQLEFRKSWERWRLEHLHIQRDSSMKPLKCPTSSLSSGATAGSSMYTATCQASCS

T2 sequence (P47871 26-477): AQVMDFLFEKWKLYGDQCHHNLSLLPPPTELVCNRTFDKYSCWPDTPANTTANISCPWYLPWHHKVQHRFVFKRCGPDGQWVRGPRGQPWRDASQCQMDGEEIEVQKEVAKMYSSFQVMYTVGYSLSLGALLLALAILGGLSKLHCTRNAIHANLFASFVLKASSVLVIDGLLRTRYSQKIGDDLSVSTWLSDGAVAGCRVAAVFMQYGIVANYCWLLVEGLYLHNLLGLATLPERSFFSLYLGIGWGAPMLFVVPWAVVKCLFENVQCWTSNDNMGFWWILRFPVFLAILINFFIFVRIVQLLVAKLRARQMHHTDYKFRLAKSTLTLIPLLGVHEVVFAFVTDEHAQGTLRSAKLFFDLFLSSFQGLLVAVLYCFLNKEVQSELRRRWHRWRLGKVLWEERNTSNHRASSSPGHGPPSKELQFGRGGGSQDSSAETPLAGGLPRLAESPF

**Q.** For `CC(C)C[C@H](NC(=O)[C@H](CC(C)C)NC(=O)[C@H](Cc1c[nH]c2ccccc12)NC(=O)[C@H](CCCCN)NC(=O)[C@@H](NC(=O)[C@H](Cc1ccccc1)NC(=O)[C@H](CCC(=O)O)NC(=O)[C@H](C)NC(=O)[C@H](CCC(N)=O)NC(=O)[C@H](C)NC(=O)[C@H](CCC(N)=O)NC(=O)[C@H](CCCCN)NC(=O)[C@H](CC(=O)O)NC(=O)[C@H](CC(C)C)NC(=O)[C@H](Cc1ccc(O)cc1)NC(=O)[C@H](CCCCN)NC(=O)C(C)(C)NC(=O)[C@H](Cc1ccc(O)cc1)NC(=O)[C@H](CC(=O)O)NC(=O)[C@H](CO)NC(=O)[C@@H](NC(=O)[C@](C)(Cc1ccccc1)NC(=O)[C@@H](NC(=O)CNC(=O)[C@H](CCC(=O)O)NC(=O)C(C)(C)NC(=O)[C@@H](N)Cc1ccc(O)cc1)[C@@H](C)O)[C@@H](C)O)C(C)C)C(=O)N[C@@H](CCCCN)C(=O)NCC(=O)NCC(=O)N1CCC[C@H]1C(=O)N[C@@H](CO)C(=O)N[C@@H](CO)C(=O)NCC(=O)N[C@@H](C)C(=O)N1CCC[C@H]1C(=O)N1CCC[C@H]1C(=O)N1CCC[C@H]1C(=O)N[C@@H](CO)C(=O)N[C@@H](CCCCN)C(N)=O` [Example 24] (H-Y[Aib]EGT[αMeF]TSDY[Aib]KYLDKQAQAEFVKWLLKGGPSSGAPPPSK-NH2), which EC50 [1] is on record?
**A.** 0.0099 nM

**Q.** And the EC50 [2]?
**A.** > 1000 nM

**Q.** What about the solubility ([3]; pH 3) of the same compound?
**A.** > 200 mg/mL

**Q.** What about the solubility ([3]; pH 5) of the same compound?
**A.** > 200 mg/mL

**Q.** And the solubility ([3]; pH 7)?
**A.** > 200 mg/mL

**Q.** What about the solubility ([3]; pH 9) of the same compound?
**A.** > 200 mg/mL

**Q.** And the EC50 [4]?
**A.** 0.011 nM

**Q.** For `CC(C)C[C@H](NC(=O)[C@H](CC(C)C)NC(=O)[C@H](Cc1c[nH]c2ccccc12)NC(=O)[C@H](CCCCN)NC(=O)[C@@H](NC(=O)[C@H](Cc1ccccc1)NC(=O)[C@H](CCC(=O)O)NC(=O)[C@H](CCC(N)=O)NC(=O)[C@H](CCC(N)=O)NC(=O)[C@H](C)NC(=O)[C@H](CCC(N)=O)NC(=O)[C@H](CCCCN)NC(=O)[C@H](CC(=O)O)NC(=O)[C@H](CC(C)C)NC(=O)[C@H](Cc1ccc(O)cc1)NC(=O)[C@H](CCCCN)NC(=O)C(C)(C)NC(=O)[C@H](Cc1ccc(O)cc1)NC(=O)[C@H](CC(=O)O)NC(=O)[C@H](CO)NC(=O)[C@@H](NC(=O)[C@](C)(Cc1ccccc1)NC(=O)[C@@H](NC(=O)CNC(=O)[C@H](CCC(=O)O)NC(=O)C(C)(C)NC(=O)[C@@H](N)Cc1ccc(O)cc1)[C@@H](C)O)[C@@H](C)O)C(C)C)C(=O)N[C@@H](CCCCN)C(=O)NCC(=O)NCC(=O)N1CCC[C@H]1C(=O)N[C@@H](CO)C(=O)N[C@@H](CO)C(=O)NCC(=O)N[C@@H](C)C(=O)N1CCC[C@H]1C(=O)N1CCC[C@H]1C(=O)N1CCC[C@H]1C(=O)N[C@@H](CO)C(=O)N[C@@H](CCCCN)C(N)=O` [Example 25] (H-Y[Aib]EGT[αMeF]TSDY[Aib]KYLDKQAQQEFVKWLLKGGPSSGAPPPSK-NH2), which EC50 [1] is on record?
**A.** 0.013 nM

**Q.** And the EC50 [2]?
**A.** > 1000 nM

**Q.** And the solubility ([3]; pH 3)?
**A.** > 200 mg/mL

**Q.** And the solubility ([3]; pH 5)?
**A.** > 200 mg/mL

**Q.** And the solubility ([3]; pH 7)?
**A.** > 200 mg/mL

**Q.** And the solubility ([3]; pH 9)?
**A.** > 200 mg/mL

**Q.** What about the EC50 [4] of the same compound?
**A.** 0.014 nM

**Q.** Which EC50 [1] does the source give for `CC(C)C[C@H](NC(=O)[C@H](CC(C)C)NC(=O)[C@H](Cc1c[nH]c2ccccc12)NC(=O)[C@H](CCCCN)NC(=O)[C@@H](NC(=O)[C@H](Cc1ccccc1)NC(=O)[C@H](CCC(=O)O)NC(=O)[C@H](CCC(N)=O)NC(=O)[C@H](CCC(N)=O)NC(=O)[C@H](C)NC(=O)[C@H](CCC(N)=O)NC(=O)[C@H](CCCCN)NC(=O)[C@H](CC(=O)O)NC(=O)[C@H](CC(C)C)NC(=O)[C@H](Cc1ccc(O)cc1)NC(=O)[C@H](CCCCN)NC(=O)C(C)(C)NC(=O)[C@H](Cc1ccc(O)cc1)NC(=O)[C@H](CC(=O)O)NC(=O)[C@H](CO)NC(=O)[C@@H](NC(=O)[C@](C)(Cc1ccccc1)NC(=O)[C@@H](NC(=O)CNC(=O)[C@H](CCC(=O)O)NC(=O)C(C)(C)NC(=O)[C@@H](N)Cc1ccc(O)cc1)[C@@H](C)O)[C@@H](C)O)C(C)C)C(=O)N[C@@H](CCCCN)C(=O)NCC(=O)NCC(=O)N1CCC[C@H]1C(=O)N[C@@H](CO)C(=O)N[C@@H](CO)C(=O)NCC(=O)N[C@@H](C)C(=O)N1CCC[C@H]1C(=O)N1CCC[C@H]1C(=O)N1CCC[C@H]1C(=O)N[C@@H](CO)C(N)=O` [Example 26] (H-Y[Aib]EGT[αMeF]TSDY[Aib]KYLDKQAQQEFVKWLLKGGPSSGAPPPS-NH2) here?
**A.** 0.013 nM

**Q.** What about the EC50 [2] of the same compound?
**A.** > 1000 nM

**Q.** And the solubility ([3]; pH 3)?
**A.** > 200 mg/mL

**Q.** And the solubility ([3]; pH 5)?
**A.** > 200 mg/mL

**Q.** And the solubility ([3]; pH 7)?
**A.** > 200 mg/mL

**Q.** And the solubility ([3]; pH 9)?
**A.** > 200 mg/mL

**Q.** And the EC50 [4]?
**A.** 0.015 nM
